This is an account of results in PMC10947197, “Acid‐Resistant BODIPY Amino Acids for Peptide‐Based Fluorescence Imaging of GPR54 Receptors in Pancreatic Islets” (Angewandte Chemie (International Ed. in English), 2023).

Molecules are shown by their SMILES.

The series can be described thus: Optical properties (absorbance, emission, extinction coefficient). The format is physicochemical. The source says: Supplementary Figure 3. Det er m inat ion of t he ex t inc t i on c oef f ic i ent of T rp-BO DI PY P LUS in EtOH. V alues pr es ent e d as m eans ±S E M ( n= 6) .
S u p p l emen t ary F i gu re 4 . […]
(also on this page, place not known: 0.0 0.1 0.2 0.3 0.4 0.5 0.6 ε: 87,680 M-1cm-1 R2: 0.98 (µM) Optical density (500 nm) Determination the extinction coefficient Trp-BODIPY Values presented means±SEM (n=6). Wavelength (nm) fluorescence (RFU) Relative Supplementary Figure 4. Representative emission spectra Trp-BODIPY PLUS µM) water (black) and dioxane (green). (n=3).) […]
Sp ectro sco p y mea su rem en ts. O pt ical prop ert ies were me asure d in a Synergy H 1 B ioT ek spect rop hot om et er at t he ind icat ed co ncent rat i ons o n 96 or 38 4-we ll p lat es.
A bs or ba nc e and em is s i on s pec t r a wer e det er m i ned in t he r ange of 400– 700 nm ( ev er y 2 nm). F or liposom e exp erime nt s, phosph at idylc hol ine (P C)-bas ed li posom es wer e pur c has ed f r om Lipos om a, dilut ed in PBS, and t r ans f er r ed int o a blac k f lat -bot t om 96-well pl at e f or opt ical measur ement s. […]
Cel l exp eri men t s. W ork wit h hum an per iph eral b loo d leuk ocyt es comp lie d wit h al l releva nt et hical r egu lat io ns and inf orme d conse nt was obt a ine d. T he st udy prot oco l was approv ed by t he Medica l Regi ona l Et hics Commit t ee ( 21-EMREC - 04 1) at t he Univers ity of Edinb urgh. H uman blo od le ukocytes w ere iso late d from hea lthy volunt e ers. Brief ly, whole b loo d was ant i-c o agu lat ed w it h s odium c it r at e [ 0. 4% ( w/ v ) f inal c onc ent r at io n] and c ent r if ug ed at 350 g for 20 m i n. P lat elet-ric h plasma w as r em ov ed and aut o log ous s er um was ge ner at e d by r ec alc if ic at ion wit h CaC l2 ( 20 m M f inal co ncent rat i on). […] 5 %/ 63%/ 7 2. 9% d is c ont i nuo us gr adi ent s . […] 9 % int er f ac e. […]
HE K29 3 cel l s. Immort alize d huma n embry onic ki dney ce lls HE K 293 w ere gro wn i n DM EM wit hout py r uv at e wit h 4. 5 g L-1 of D-gluc os e, F B S , and penic ill in/ s t r ept om y c i n

`CC1=CC(C)=[N+]2C1=C(c1cccc(-c3[nH]c4ccccc4c3C[C@H](NC(=O)OCC3c4ccccc4-c4ccccc43)C(=O)O)c1)c1c(C)cc(C)n1[B-]2(C#N)C#N` [Trp-BODIPY PLUS]: the Absorbance maximum wavelength is listed as 500 nm and the Emission maximum wavelength worked out at 515 nm. Further, for the setting “in EtOH, optical density at 500 nm, n=6, fit to Beer's law”, the Extinction coefficient is reported as 87,680 M-1cm-1.
